Activity calls are given as the source filed them. The rule behind the calls is not given here.
Target: T1, Prostaglandin G/H synthase 1 (Homo sapiens, UniProt P23219)
Test: biochemical
Type: cell-based, COS
Details: not given

T1 sequence (P23219 whole entry): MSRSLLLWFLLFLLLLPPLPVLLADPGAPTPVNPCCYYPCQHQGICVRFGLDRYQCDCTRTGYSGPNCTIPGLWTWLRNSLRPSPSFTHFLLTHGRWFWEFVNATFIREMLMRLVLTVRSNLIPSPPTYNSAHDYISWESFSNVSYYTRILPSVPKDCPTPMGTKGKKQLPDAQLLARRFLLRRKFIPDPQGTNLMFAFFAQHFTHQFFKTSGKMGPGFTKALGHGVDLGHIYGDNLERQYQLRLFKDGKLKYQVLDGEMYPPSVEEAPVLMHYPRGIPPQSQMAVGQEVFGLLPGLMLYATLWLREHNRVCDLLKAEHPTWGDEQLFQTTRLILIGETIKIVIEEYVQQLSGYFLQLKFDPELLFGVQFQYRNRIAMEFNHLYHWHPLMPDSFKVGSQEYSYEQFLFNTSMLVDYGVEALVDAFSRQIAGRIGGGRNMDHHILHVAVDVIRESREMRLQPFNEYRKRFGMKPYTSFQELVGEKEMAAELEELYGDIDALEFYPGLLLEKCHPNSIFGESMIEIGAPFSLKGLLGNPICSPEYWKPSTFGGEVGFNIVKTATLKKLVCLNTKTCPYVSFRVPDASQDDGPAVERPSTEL

Compound	IC50 [nM]
CS(=O)(=O)c1ccc(-c2cc(C(F)(F)F)nc(NC3CCNCC3)n2)cc1	> 100000
CS(=O)(=O)c1ccc(-c2cc(C(F)(F)F)nc(NCC3CCCCC3)n2)cc1	> 100000
CS(=O)(=O)c1ccc(-c2cc(C(F)(F)F)nc(NCC3CCOCC3)n2)cc1	100000
CCCCNc1nc(-c2ccc(S(C)(=O)=O)cc2)cc(C(F)(F)F)n1	> 100000
Cc1ccc(CNc2nc(-c3ccc(S(C)(=O)=O)cc3)cc(C(F)(F)F)n2)cc1	> 100000
CS(=O)(=O)c1ccc(-c2ccnc(NC3CCCCC3)n2)cc1	> 100000
CCCCNc1nc(-c2ccc(S(N)(=O)=O)cc2)cc(C(F)(F)F)n1	700
Cc1cc(-c2ccc(S(C)(=O)=O)cc2)nc(NC2CCCCC2)n1	> 100000
CS(=O)(=O)c1ccc(-c2cc(C(N)=O)nc(NC3CCCCC3)n2)cc1	> 100000
CS(=O)(=O)c1ccc(-c2cc(C(F)(F)F)nc(NC3CCOCC3)n2)cc1	> 91600
CS(=O)(=O)c1ccc(-c2cc(C(F)(F)F)nc(NC3CCCCC3)n2)cc1	> 58400
CS(=O)(=O)c1ccc(-c2cc(C(=O)O)nc(NC3CCCCC3)n2)cc1	> 100000
CS(=O)(=O)c1ccc(-c2cc(OCC(F)(F)F)nc(NC3CCCCC3)n2)cc1	6320
CS(=O)(=O)c1ccc(-c2cc(C(F)(F)F)nc(N)n2)cc1	> 100000
Cc1ccc(Nc2nc(-c3ccc(S(C)(=O)=O)cc3)cc(C(F)(F)F)n2)cc1	> 100000
CS(=O)(=O)c1ccc(-c2cc(C(F)(F)F)nc(NCc3ccccc3)n2)cc1	> 100000
CS(=O)(=O)c1ccc(-c2cc(C(F)(F)F)nc(Nc3ccc(F)cc3)n2)cc1	> 65800
CC(C)CNc1nc(-c2ccc(S(C)(=O)=O)cc2)cc(C(F)(F)F)n1	> 66200
CS(=O)(=O)c1ccc(-c2cc(C(F)(F)F)nc(Nc3ccccc3)n2)cc1	> 100000

Target: T2, Prostaglandin G/H synthase 2 (Homo sapiens, UniProt P35354)
T2 sequence (P35354 whole entry): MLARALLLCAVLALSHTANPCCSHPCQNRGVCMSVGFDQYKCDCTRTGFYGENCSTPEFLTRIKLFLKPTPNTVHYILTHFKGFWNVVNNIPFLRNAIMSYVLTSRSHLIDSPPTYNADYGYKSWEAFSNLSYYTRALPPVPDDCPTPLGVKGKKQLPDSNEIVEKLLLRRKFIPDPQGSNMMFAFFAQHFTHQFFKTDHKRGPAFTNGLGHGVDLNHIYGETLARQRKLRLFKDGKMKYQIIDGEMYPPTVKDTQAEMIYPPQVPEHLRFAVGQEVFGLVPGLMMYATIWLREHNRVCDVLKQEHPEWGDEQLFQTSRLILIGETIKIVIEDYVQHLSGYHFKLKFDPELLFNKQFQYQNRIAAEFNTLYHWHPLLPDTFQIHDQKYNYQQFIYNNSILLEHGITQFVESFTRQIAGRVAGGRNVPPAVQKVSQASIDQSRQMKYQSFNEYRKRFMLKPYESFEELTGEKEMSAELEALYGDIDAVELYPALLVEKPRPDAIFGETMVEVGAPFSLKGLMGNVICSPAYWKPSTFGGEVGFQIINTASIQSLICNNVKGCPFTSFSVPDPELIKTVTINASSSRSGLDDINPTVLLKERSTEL
Test: biochemical
Type: cell-based, Sf9
Details: not given

Compound	IC50 [nM]
CC(C)CNc1nc(-c2ccc(S(C)(=O)=O)cc2)cc(C(F)(F)F)n1	12

Target: T1, Prostaglandin G/H synthase 1
Test: biochemical
Type: cell-based, Sf9
Details: not given
Remark: another data set of the same source

Compound	IC50 [nM]
CC(C)CNc1nc(-c2ccc(S(C)(=O)=O)cc2)cc(C(F)(F)F)n1	> 100000

System: not listed separately
Test: Oral bioavailability in rat at 5 mg/kg
Type: ADME, organism-based
Details: in vivo

Compound	bioavailability [%]
CC(C)CNc1nc(-c2ccc(S(C)(=O)=O)cc2)cc(C(F)(F)F)n1	107

System: not listed separately
Test: Volume of distribution at steady state in rat at 1 mg/kg/hr, iv
Type: ADME, organism-based
Design: route intravenous
Details: in vivo, read-out: Vdss

Compound	Vd [L/kg]
CC(C)CNc1nc(-c2ccc(S(C)(=O)=O)cc2)cc(C(F)(F)F)n1	6

Target: T1, Prostaglandin G/H synthase 1
Test: not given
Type: tissue-based, Blood
Details: not given

Compound	IC50 [nM]
CCCCNc1nc(-c2ccc(S(C)(=O)=O)cc2)cc(C(F)(F)F)n1	> 96200
CS(=O)(=O)c1ccc(-c2cc(C(F)(F)F)nc(NC3CCCCC3)n2)cc1	11600
CS(=O)(=O)c1ccc(-c2cc(C(F)(F)F)nc(NCc3ccccc3)n2)cc1	39300
CC(C)CNc1nc(-c2ccc(S(C)(=O)=O)cc2)cc(C(F)(F)F)n1	62000

System: not listed separately
Test: Terminal half life in rat at 1 mg/kg/hr, iv
Type: ADME, organism-based
Design: route intravenous
Details: in vivo, read-out: beta t1/2 (converted)

Compound	half-life [h]
CC(C)CNc1nc(-c2ccc(S(C)(=O)=O)cc2)cc(C(F)(F)F)n1	9

Species on record: Homo sapiens
Test: Selectivity ratio of IC50 for COX1 to IC50 for COX2 in human whole blood
Type: tissue-based
Details: not given

Compound	Ratio IC50
CCCCNc1nc(-c2ccc(S(C)(=O)=O)cc2)cc(C(F)(F)F)n1	> 1370
CS(=O)(=O)c1ccc(-c2cc(C(F)(F)F)nc(NC3CCCCC3)n2)cc1	187
CS(=O)(=O)c1ccc(-c2cc(C(F)(F)F)nc(NCc3ccccc3)n2)cc1	4910
CC(C)CNc1nc(-c2ccc(S(C)(=O)=O)cc2)cc(C(F)(F)F)n1	301

Species on record: Rattus norvegicus
Test: Analgesic activity against Freund's adjuvant-induced pain in rat model of acute inflammatory pain assessed as reversal of adjuvant hypersensitivity
Type: functional
Details: not given

Compound	ED50 [mg/kg]
CC(C)CNc1nc(-c2ccc(S(C)(=O)=O)cc2)cc(C(F)(F)F)n1	0.5

Target: T2, Prostaglandin G/H synthase 2
Test: not given
Type: cell-based, COS
Details: not given

Compound	IC50 [nM]
CS(=O)(=O)c1ccc(-c2cc(C(F)(F)F)nc(NC3CCNCC3)n2)cc1	> 10000
CS(=O)(=O)c1ccc(-c2cc(C(F)(F)F)nc(NCC3CCCCC3)n2)cc1	29
CS(=O)(=O)c1ccc(-c2cc(C(F)(F)F)nc(NCC3CCOCC3)n2)cc1	5
CCCCNc1nc(-c2ccc(S(C)(=O)=O)cc2)cc(C(F)(F)F)n1	1.3
Cc1ccc(CNc2nc(-c3ccc(S(C)(=O)=O)cc3)cc(C(F)(F)F)n2)cc1	< 10
CS(=O)(=O)c1ccc(-c2ccnc(NC3CCCCC3)n2)cc1	> 10000
CCCCNc1nc(-c2ccc(S(N)(=O)=O)cc2)cc(C(F)(F)F)n1	< 1.4
Cc1cc(-c2ccc(S(C)(=O)=O)cc2)nc(NC2CCCCC2)n1	1680
CS(=O)(=O)c1ccc(-c2cc(C(N)=O)nc(NC3CCCCC3)n2)cc1	> 10000
CS(=O)(=O)c1ccc(-c2cc(C(=O)O)nc(NC3CCCCC3)n2)cc1	> 10000
CS(=O)(=O)c1ccc(-c2cc(OCC(F)(F)F)nc(NC3CCCCC3)n2)cc1	16
CS(=O)(=O)c1ccc(-c2cc(C(F)(F)F)nc(N)n2)cc1	272
Cc1ccc(Nc2nc(-c3ccc(S(C)(=O)=O)cc3)cc(C(F)(F)F)n2)cc1	11
CS(=O)(=O)c1ccc(-c2cc(C(F)(F)F)nc(Nc3ccc(F)cc3)n2)cc1	7.2
CC(C)CNc1nc(-c2ccc(S(C)(=O)=O)cc2)cc(C(F)(F)F)n1	2
CS(=O)(=O)c1ccc(-c2cc(C(F)(F)F)nc(Nc3ccccc3)n2)cc1	5.6

Target: T2, Prostaglandin G/H synthase 2
Test: not given
Type: tissue-based, Blood
Details: not given
Remark: another data set of the same source

Compound	IC50 [nM]
CCCCNc1nc(-c2ccc(S(C)(=O)=O)cc2)cc(C(F)(F)F)n1	70
CS(=O)(=O)c1ccc(-c2cc(C(F)(F)F)nc(NC3CCCCC3)n2)cc1	62
CS(=O)(=O)c1ccc(-c2cc(C(F)(F)F)nc(NCc3ccccc3)n2)cc1	8
CC(C)CNc1nc(-c2ccc(S(C)(=O)=O)cc2)cc(C(F)(F)F)n1	206

System: not listed separately
Test: Selectivity ratio of IC50 for human COX1 to IC50 for human COX2 expressed in baculovirus-infected SF9 cells
Details: not given

Compound	Ratio IC50
CC(C)CNc1nc(-c2ccc(S(C)(=O)=O)cc2)cc(C(F)(F)F)n1	> 8330

System: not listed separately
Test: Blood clearance in rat at 1 mg/kg/hr, iv
Type: ADME, organism-based
Design: route intravenous
Details: whole blood

Compound	clearance [mL/min/kg]
CC(C)CNc1nc(-c2ccc(S(C)(=O)=O)cc2)cc(C(F)(F)F)n1	10

System: COS
Test: Selectivity ratio of IC50 for human COX1 to IC50 for human COX2 expressed in african green monkey COS cells
Type: cell-based
Details: not given

Compound	Ratio IC50
CS(=O)(=O)c1ccc(-c2cc(C(F)(F)F)nc(NC3CCNCC3)n2)cc1	inactive
CS(=O)(=O)c1ccc(-c2cc(C(F)(F)F)nc(NCC3CCCCC3)n2)cc1	> 3450
CS(=O)(=O)c1ccc(-c2cc(C(F)(F)F)nc(NCC3CCOCC3)n2)cc1	20000
CCCCNc1nc(-c2ccc(S(C)(=O)=O)cc2)cc(C(F)(F)F)n1	> 76900
Cc1ccc(CNc2nc(-c3ccc(S(C)(=O)=O)cc3)cc(C(F)(F)F)n2)cc1	> 10000
CS(=O)(=O)c1ccc(-c2ccnc(NC3CCCCC3)n2)cc1	inactive
CCCCNc1nc(-c2ccc(S(N)(=O)=O)cc2)cc(C(F)(F)F)n1	> 500
Cc1cc(-c2ccc(S(C)(=O)=O)cc2)nc(NC2CCCCC2)n1	> 59
CS(=O)(=O)c1ccc(-c2cc(C(N)=O)nc(NC3CCCCC3)n2)cc1	inactive
CS(=O)(=O)c1ccc(-c2cc(C(F)(F)F)nc(NC3CCOCC3)n2)cc1	> 5090
CS(=O)(=O)c1ccc(-c2cc(C(F)(F)F)nc(NC3CCCCC3)n2)cc1	> 117000
CS(=O)(=O)c1ccc(-c2cc(C(=O)O)nc(NC3CCCCC3)n2)cc1	inactive
CS(=O)(=O)c1ccc(-c2cc(OCC(F)(F)F)nc(NC3CCCCC3)n2)cc1	395
CS(=O)(=O)c1ccc(-c2cc(C(F)(F)F)nc(N)n2)cc1	> 368
Cc1ccc(Nc2nc(-c3ccc(S(C)(=O)=O)cc3)cc(C(F)(F)F)n2)cc1	> 9090
CS(=O)(=O)c1ccc(-c2cc(C(F)(F)F)nc(NCc3ccccc3)n2)cc1	> 400000
CS(=O)(=O)c1ccc(-c2cc(C(F)(F)F)nc(Nc3ccc(F)cc3)n2)cc1	> 9140
CC(C)CNc1nc(-c2ccc(S(C)(=O)=O)cc2)cc(C(F)(F)F)n1	> 33100
CS(=O)(=O)c1ccc(-c2cc(C(F)(F)F)nc(Nc3ccccc3)n2)cc1	> 17900

From ChEMBL document CHEMBL1153635, “Identification of [4-[4-(methylsulfonyl)phenyl]-6-(trifluoromethyl)-2-pyrimidinyl] amines and ethers as potent and selective cyclooxygenase-2 inhibitors” (Bioorg Med Chem Lett, 2009)
